Measurements reported in PMC9234589 (Heliyon, 2022).
Where “and” joins values, the source holds several entries; their conditions need not be identical. Equal values may be shown once.

Columns and labels:
[1] = tested on: Drosophila melanogaster high bioactivation cross (HB), marker-heterozygous flies (mwh +/+ flr3); assay: Drosophila wing spot test; assay type: in vivo
human lymphocytes = conditions: cited from earlier work
[2] = tested on: Drosophila melanogaster standard cross (ST), marker-heterozygous flies (mwh +/+ flr3); assay: Drosophila wing spot test; assay type: in vivo
C. elegans = conditions: NIC 100 μM; cited from earlier work
[3] = tested on: A549 human adenocarcinoma cells; conditions: cited from earlier work
[4] = NIC 0.456 mM + RES 0.0004 mM vs NIC 0.456 mM
[5] = NIC 0.456 mM + RES 0.0004 mM vs RES 0.0004 mM
[6] = NIC 0.456 mM + RES 0.011 mM vs RES 0.011 mM
[7] = NIC 11.4 mM + RES 0.0004 mM vs RES 0.0004 mM
[8] = NIC […] + RES 0.0004 mM vs NIC […]
[9] = NIC […] + RES 0.0004 mM vs RES 0.0004 mM
[10] = HB cross, URE 20 mM positive control, vs water
[11] = ST cross, URE 20 mM positive control, vs water

CN1CCC[C@H]1c1cccnc1 [NIC, nicotine]
Lethality ([1]; HB cross, NIC 11.4 mM): lethal
Clone formation observed ([1]; NIC 0.456 mM): 0.95 per 105 per cell Cells division
Large single spots (>2 cells) per fly (number of spots) ([1]; NIC 0.456 mM): 0.07 (007)
Mean mwh clone size class ([1]; NIC 0.456 mM): 1.64
Small single spots (1-2 cells) per fly (number of spots) ([1]; NIC 0.456 mM): 0.38 (038)
Total spots per fly (number of spots) ([1]; NIC 0.456 mM): 0.48(048)
Twin spots per fly (number of spots) ([1]; NIC 0.456 mM): 0.03 (003)
mwh clones ([1]; NIC 0.456 mM): 47
Clone formation observed ([1]; NIC 0.456 mM + RES 0.0004 mM): 0.95 per 105 per cell Cells division and 0.90 per 105 per cell Cells division
Large single spots (>2 cells) per fly (number of spots) ([1]; NIC 0.456 mM + RES 0.0004 mM): 0.11 (007)
Mean mwh clone size class ([1]; NIC 0.456 mM + RES 0.0004 mM): 2.21
Small single spots (1-2 cells) per fly (number of spots) ([1]; NIC 0.456 mM + RES 0.0004 mM): 0.36 (023)
Total spots per fly (number of spots) ([1]; NIC 0.456 mM + RES 0.0004 mM): 0.47 (030)
Twin spots per fly (number of spots) ([1]; NIC 0.456 mM + RES 0.0004 mM): 0.00 (000)
mwh clones ([1]; NIC 0.456 mM + RES 0.0004 mM): 29
Clone formation control connected [1, 4]: -0.05 per 105 per cell Cells division
Large single spots statistical diagnosis [1, 4]: -
Small single spots statistical diagnosis [1, 4]: -
Total spots statistical diagnosis [1, 4]: -
Twin spots statistical diagnosis [1, 4]: -
Clone formation control connected [1, 5]: -0.25 per 105 per cell Cells division
Large single spots statistical diagnosis [1, 5]: -
Small single spots statistical diagnosis [1, 5]: -
Total spots statistical diagnosis [1, 5]: -
Twin spots statistical diagnosis [1, 5]: -
Large single spots (>2 cells) per fly (number of spots) ([1]; NIC 0.456 mM + RES 0.011 mM): 0.10 (006)
Small single spots (1-2 cells) per fly (number of spots) ([1]; NIC 0.456 mM + RES 0.011 mM): 0.37 (022)
Clone formation control connected [1, 6]: 0.20 per 105 per cell Cells division
Small single spots statistical diagnosis [1, 6]: -
Clone formation observed ([1]; NIC 11.4 mM + RES 0.0004 mM): 0.80 per 105 per cell Cells division
Large single spots (>2 cells) per fly (number of spots) ([1]; NIC 11.4 mM + RES 0.0004 mM): 0.00 (000)
Mean mwh clone size class ([1]; NIC 11.4 mM + RES 0.0004 mM): 1.25
Small single spots (1-2 cells) per fly (number of spots) ([1]; NIC 11.4 mM + RES 0.0004 mM): 0.40 (004)
Total spots per fly (number of spots) ([1]; NIC 11.4 mM + RES 0.0004 mM): 0.40 (004)
Twin spots per fly (number of spots) ([1]; NIC 11.4 mM + RES 0.0004 mM): 0.00 (000)
mwh clones ([1]; NIC 11.4 mM + RES 0.0004 mM): 04
Clone formation control connected [1, 7]: -0.40 per 105 per cell Cells division
Large single spots statistical diagnosis [1, 7]: -
Small single spots statistical diagnosis [1, 7]: -
Total spots statistical diagnosis [1, 7]: -
Twin spots statistical diagnosis [1, 7]: -
Large single spots statistical diagnosis [1, 8]: -
Twin spots statistical diagnosis [1, 8]: -
Large single spots statistical diagnosis [1, 9]: -
Small single spots statistical diagnosis [1, 9]: -
Total spots statistical diagnosis [1, 9]: -
Twin spots statistical diagnosis [1, 9]: -
Concentrations at which genotoxic in in vitro assays (human lymphocytes): > 500 nM
Mean mwh clone size class ([2]; NIC 0.050 mM + RES 0.011 mM): 1.34
Number of surviving flies ([2]; ST cross, NIC 11.4 mM): decreased
Genotoxicity (in words) ([2]; ST cross, NIC […] and 11.4 mM, increased small and total spots): genotoxic
Genotoxicity, comet assay (in words) (C. elegans): genotoxic

Oc1ccc(/C=C/c2cc(O)cc(O)c2)cc1 [RES, Resveratrol]
Clone formation observed ([1]; RES 0.0004 mM): 1.20 per 105 per cell Cells division
Large single spots (>2 cells) per fly (number of spots) ([1]; RES 0.0004 mM): 0.06 (005)
Mean mwh clone size class ([1]; RES 0.0004 mM): 1.84
Small single spots (1-2 cells) per fly (number of spots) ([1]; RES 0.0004 mM): 0.52 (045)
Total spots per fly (number of spots) ([1]; RES 0.0004 mM): 0.59 (051)
Twin spots per fly (number of spots) ([1]; RES 0.0004 mM): 0.01 (001)
mwh clones ([1]; RES 0.0004 mM): 51
Mean mwh clone size class ([1]; RES 0.011 mM): 1.43 and 1.56
Twin spots per fly (number of spots) ([1]; RES 0.011 mM): 0.02 (001)
Clone formation observed ([2]; RES 0.0004 mM): 1.15 per 105 per cell Cells division
Large single spots (>2 cells) per fly (number of spots) ([2]; RES 0.0004 mM): 0.07 (004)
Mean mwh clone size class ([2]; RES 0.0004 mM): 1.64
Small single spots (1-2 cells) per fly (number of spots) ([2]; RES 0.0004 mM): 0.53 (031)
Total spots per fly (number of spots) ([2]; RES 0.0004 mM): 0.60 (035)
Twin spots per fly (number of spots) ([2]; RES 0.0004 mM): 0.00 (0)
mwh clones ([2]; RES 0.0004 mM): 33
Clone formation observed ([2]; RES 0.011 mM): 1.15 per 105 per cell Cells division and 1.35 per 105 per cell Cells division
Large single spots (>2 cells) per fly (number of spots) ([2]; RES 0.011 mM): 0.03 (002) and 0.05 (005)
Mean mwh clone size class ([2]; RES 0.011 mM): 1.84 and 1.58
Small single spots (1-2 cells) per fly (number of spots) ([2]; RES 0.011 mM): 0.47 (027) and 0.58 (057)
Total spots per fly (number of spots) ([2]; RES 0.011 mM): 0.57 (033) and 0.67 (066)
Twin spots per fly (number of spots) ([2]; RES 0.011 mM): 0.07 (004) and 0.04 (004)
Effect on cell survival (in words) ([3]; RES 0.02 mM): inhibited cell survival
Effect on cell proliferation and viability (in words) ([3]; RES 0.001 and 0.005 mM): promoted cell proliferation and viability

CCOC(N)=O [URE, ethyl carbamate]
Clone formation per 105 cells per cell division, observed ([1]; HB cross, URE 20 mM): 6.35
Mean mvh clone size class ([1]; HB cross, URE 20 mM): 1.82
mwh clones ([1]; HB cross, URE 20 mM): 71
Small single spots (1-2 cells), Spots per Fly (Number of Spots) [1, 10]: 2.52 (58) Spots per Fly
Small single spots (1-2 cells), Statistical Diagnosis [1, 10]: +
Total spots statistical diagnosis [1, 10]: +
Total spots, Spots per Fly (Number of Spots) [1, 10]: 3.09 (71) Spots per Fly
Twin spots statistical diagnosis [1, 10]: +
Twin spots, Spots per Fly (Number of Spots) [1, 10]: 0.17 (4) Spots per Fly
large single spots (>2 cells), Spots per Fly (Number of Spots) [1, 10]: 0.39 (09) Spots per Fly
large single spots (>2 cells), Statistical Diagnosis [1, 10]: +
Clone formation per 105 cells per cell division, control connected ([1]; HB cross, URE 20 mM, control water): 4.85
Clone formation per 105 cells per cell division, observed ([2]; ST cross, URE 20 mM): 2.80
Mean mvh clone size class ([2]; ST cross, URE 20 mM): 1.45
mwh clones ([2]; ST cross, URE 20 mM): 38
Small single spots (1-2 cells), Spots per Fly (Number of Spots) [2, 11]: 1.21 (34) Spots per Fly
Small single spots (1-2 cells), Statistical Diagnosis [2, 11]: +
Total spots statistical diagnosis [2, 11]: +
Total spots, Spots per Fly (Number of Spots) [2, 11]: 1.36 (38) Spots per Fly
Twin spots statistical diagnosis [2, 11]: -
Twin spots, Spots per Fly (Number of Spots) [2, 11]: 0.04 (1) Spots per Fly
large single spots (>2 cells), Spots per Fly (Number of Spots) [2, 11]: 0.11 (03) Spots per Fly
large single spots (>2 cells), Statistical Diagnosis [2, 11]: -
Clone formation per 105 cells per cell division, control connected ([2]; ST cross, URE 20 mM, control water): 1.65
